Reference: publication PMC8710297, “Identification of potent SENP1 inhibitors that inactivate SENP1/JAK2/STAT signaling pathway and overcome platinum drug resistance in ovarian cancer” (Clinical and Translational Medicine, 2021)

Assays:
SENP1(C603A) = molecular target: T1, SENP1(C603A) (Homo sapiens, UniProt Q9P0U3, C603A); test: UPLC-MS/MS of UA associated with IPs of SENP1 proteins; type: binding; details: mass-spec and surface plasmon resonance analyses
T1 construct: GST; made in house
T1 sequence (Q9P0U3 1-644 C603A): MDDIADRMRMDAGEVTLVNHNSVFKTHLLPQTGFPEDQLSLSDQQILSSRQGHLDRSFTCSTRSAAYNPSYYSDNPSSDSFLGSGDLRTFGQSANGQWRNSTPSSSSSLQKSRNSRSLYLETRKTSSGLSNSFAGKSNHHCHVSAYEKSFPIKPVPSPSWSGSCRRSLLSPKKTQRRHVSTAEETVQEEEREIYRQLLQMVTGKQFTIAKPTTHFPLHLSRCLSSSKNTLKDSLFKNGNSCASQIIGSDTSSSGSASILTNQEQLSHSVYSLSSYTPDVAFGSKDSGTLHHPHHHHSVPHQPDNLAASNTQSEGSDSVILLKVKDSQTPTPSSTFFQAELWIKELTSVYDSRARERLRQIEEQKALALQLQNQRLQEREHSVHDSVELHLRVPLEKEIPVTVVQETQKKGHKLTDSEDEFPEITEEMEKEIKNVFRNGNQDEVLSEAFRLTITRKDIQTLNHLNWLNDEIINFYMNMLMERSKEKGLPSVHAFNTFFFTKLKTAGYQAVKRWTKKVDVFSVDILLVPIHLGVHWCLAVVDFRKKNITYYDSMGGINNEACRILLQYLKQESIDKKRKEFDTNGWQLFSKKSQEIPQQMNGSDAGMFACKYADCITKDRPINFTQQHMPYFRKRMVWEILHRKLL
Experimental: FIGURE 2 UA directly interacts with Sentrin‐specific protease 1 (SENP1). (A) Cellular thermal shift assay to examine the interaction of UA with SENP1. IGROV1 CR cells pretreated with MG132 (10 μM, 1 h) were incubated with DMSO or UA for 4 h before being shifted to indicated temperatures. SENP1 stability was analyzed by using Western blot against SENP1 antibody. Right panel, quantification of non‐denatured SENP1 fraction shown in the left panel. (B) Cell‐free thermal shift assay to examine interactions of UA with SENP1. Purified SENP1 proteins were incubated with DMSO or UA for 4 h before being shifted to the indicated temperatures. SENP1 stability was analyzed by using Western blot against SENP1 antibody. Right panel, quantification of non‐denatured SENP1 fraction shown in the left panel. […] Stability of SENP1(C603A) was analyzed by using Western blot against SENP1 antibody. […] Left; Ultra‐high performance liquid‐chromatography‐MS/MS analyses of associated UA in indicated samples, right; quantification of data shown in left (the binding affinity of UA with SENP1‐C603A was normalized as 1). […]
Cell viability was detected using Sulforhodamine B (SRB) assay as described previously (3).
Absorbance at 51 0 nm was detected using a SpectraMax Re a d e r (Molecular Devices) and […]

IGROV1 CR cells = test: Drug synergy screening: SRB proliferation assay with 2 μM cisplatin; type: cell-based
Experimental: (A) Collection of Momordin Ic (Mc) natural compound analogues. […] Cell proliferation was determined by the sulforhodamine B (SRB) assay. […] IGROV1 CR cells were incubated with Mc at indicated concentrations for 48 h and then harvested for Western blot for indicated proteins. […] IGROV1 CR cells were incubated with UA and then treated as in C. […] Intensity of SUMOylated JAK2 was measured by Quantity One software. […] Recombinant His‐JAK2 was SUMOylated by in vitro SUMOylation assay, and then SUMOylated JAK2 proteins were incubated with or without recombinant GST‐SENP1 together with Mc for 3 h. […] In vitro assay was performed as in (F). […]

binding of UA to SENP1(C603A) compared to SENP1 (SENP1(C603A))	Compound	IC50 of UA derivatives to inhibit resistant cells together with cisplatin (in words) (IGROV1 CR cells)
decreased binding affinities	C[C@H]1[C@H](C)CC[C@]2(C(=O)O)CC[C@]3(C)C(=CC[C@@H]4[C@@]5(C)CC[C@H](O)C(C)(C)[C@@H]5CC[C@]43C)[C@H]12 [UA, ursolic acid, reference compound]	–
–	C[C@H]1[C@H](C)CC[C@]2(C(=O)NCC(=O)N(C)CCO)CC[C@]3(C)C(=CC[C@@H]4[C@@]5(C)CC[C@H](O)C(C)(C)[C@@H]5CC[C@]43C)[C@H]12 [UAMMC9]	lower IC50
